The supplement of paper PMC10307832

Columns and labels:
Assay in all cases: relative viability (nuclei count vs DMSO), 5 days (fraction); higher = more cells survive
[1] = compound: C1=CC=C(C(=C1)C2=CC=C(C=C2)C3=CSC4=C3C(=C(C(=O)N4)C#N)O)O
Summary of the method: (§1)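 Lung cancer cell lines in 1536-well plates were exposed by pinning to five library-drug doses (not always all listed) √10 apart, following an overnight hold at 37 °C. MetaXpress counted Hoechst-stained nuclei from 4× images taken after 5 days without medium change. Viability is the median ratio of treated-well to vehicle-well nuclei across plates. Plates required control CV below 25% and at least one doubling.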

TGX 221 = compound: CC1=CN2C(=O)C=C(N=C2C(=C1)C(C)NC3=CC=CC=C3)N4CCOCC4 [TGX 221]
Summary of the method: as §1

Ricolinostat = compound: O=C(CCCCCCNC(=O)c1cnc(N(c2ccccc2)c2ccccc2)nc1)NO [Ricolinostat]
Summary of the method: as §1

[2] = compound: C1=CC=C(C(=C1)C2=CC=C(C=C2)C3=CSC4=C3C(=C(C(=O)N4)C#N)O)O + COc1cc2c(Oc3ccc(NC(=O)C4(C(=O)Nc5ccc(F)cc5)CC4)cc3F)ccnc2cc1OCCCN1CCOCC1 [Foretinib] (partner 0.25 µM)
Summary of the method: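 One day after seeding in 1536-well plates, lung cancer cell lines were dosed by pin tool. Dosing was either single-drug or a fixed anchor-drug dose plus five library-drug doses (not always all listed) in √10 steps. After 5 days, nuclei were stained in one fix-and-stain step and counted on 4× images, and relative viability is the nuclei count of treated wells over that of vehicle wells, given as the median of duplicate plates.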

Cell Line | relative viability ([1]; 0.08 µM) | relative viability ([1]; 0.253 µM) | relative viability ([1]; 0.8 µM) | relative viability ([1]; 2.53 µM) | relative viability ([1]; 8 µM) | relative viability (TGX 221; 0.08 µM) | relative viability (TGX 221; 0.253 µM) | relative viability (TGX 221; 0.8 µM) | relative viability (TGX 221; 2.53 µM) | relative viability (TGX 221; 8 µM) | relative viability (Ricolinostat; 0.08 µM) | relative viability (Ricolinostat; 0.253 µM) | relative viability (Ricolinostat; 0.8 µM) | relative viability (Ricolinostat; 2.53 µM) | relative viability ([2]; first compound 0.08 µM) | relative viability ([2]; first compound 0.253 µM) | relative viability ([2]; first compound 0.8 µM) | relative viability ([2]; first compound 2.53 µM) | relative viability ([2]; first compound 8 µM)
NCI-H1355 | 0.839 | 1.13 | 1.02 | 1.02 | 0.955 | 0.979 | 0.948 | 0.972 | 0.864 | 0.902 | 0.855 | 0.97 | 0.948 | 0.893 | 0.895 | 1.01 | 1.12 | 0.951 | 0.703
NCI-H441 | 0.928 | 1.2 | 1.22 | 1.12 | 0.63 | 0.952 | 0.955 | 1.04 | 1.08 | 1.06 | 0.793 | 0.972 | 1.01 | 0.892 | 1.07 | 1.15 | 1 | 1.27 | 0.976
SW 900 | 0.81 | 1.22 | 0.809 | 0.773 | 0.56 | 0.839 | 0.938 | 0.742 | 0.608 | 0.601 | 0.591 | 0.832 | 0.647 | 0.74 | 0.914 | 0.519 | 0.923 | 0.634 | 0.62
EKVX | 0.961 | 1.13 | 0.971 | 0.967 | 0.851 | 0.865 | 0.888 | 0.907 | 0.838 | 0.855 | 0.764 | 0.918 | 0.907 | 0.964 | 0.882 | 0.828 | 0.799 | 0.831 | 0.743
NCI-H358 | 0.905 | 0.937 | 1.04 | 0.907 | 0.716 | 0.914 | 0.88 | 0.914 | 1.02 | 0.756 | 0.726 | 0.914 | 1.05 | 1.04 | 0.672 | 0.558 | 0.697 | 0.624 | 0.53
A-427 | 0.913 | 1.02 | 1.05 | 1.04 | 1 | 0.949 | 0.91 | 0.971 | 0.893 | 1 | 0.714 | 1.01 | 0.908 | 0.849 | 1.16 | 1.18 | 1.19 | 1.1 | 1.18
NCI-H23 | 0.948 | 1.03 | 1.07 | 0.978 | 0.805 | 0.993 | 0.861 | 0.909 | 0.825 | 0.932 | 0.779 | 1.03 | 0.851 | 0.895 | 0.906 | 1.04 | 1.19 | 1.05 | 0.896
NCI-H596 | 0.777 | 1.22 | 1.05 | 0.98 | 0.841 | 1.03 | 0.953 | 1.02 | 0.94 | 0.997 | 0.999 | 1.1 | 0.987 | 0.851 | 1.01 | 0.783 | 0.79 | 1.03 | 0.824
